Biological target: T1, squalene synthase (Rattus norvegicus, UniProt Q02769)
T1 construct: incubating rat liver homogenate with various concentrations of the test compound; from tissue; host or cells: rat liver homogenate
T1 sequence (Q02769 1-416): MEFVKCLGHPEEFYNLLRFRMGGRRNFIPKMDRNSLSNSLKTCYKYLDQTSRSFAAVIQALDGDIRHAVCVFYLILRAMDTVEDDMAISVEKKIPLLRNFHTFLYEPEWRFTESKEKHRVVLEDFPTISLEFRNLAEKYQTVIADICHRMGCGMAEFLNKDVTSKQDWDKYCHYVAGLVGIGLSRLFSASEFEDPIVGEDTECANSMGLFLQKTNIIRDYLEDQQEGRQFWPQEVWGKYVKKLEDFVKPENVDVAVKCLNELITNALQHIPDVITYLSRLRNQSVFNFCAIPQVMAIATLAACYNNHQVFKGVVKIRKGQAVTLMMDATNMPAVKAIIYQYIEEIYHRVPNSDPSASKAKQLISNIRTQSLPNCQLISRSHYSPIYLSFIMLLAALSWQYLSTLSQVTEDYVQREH
Assay: Inhibition of squalene synthase in rat liver homogenate with [2-14C]farnesylpyrophosphate as substrate
Type: biochemical
Details: 50% inhibition of [14C]squalene production in a 30 minute assay, read-out: IC₅₀
Experimental: Acta, Volume 877, 50-60 (1986) and modified to include measurement of cholesterol by high performance liquid chromatography (h.p.l.c.).
[¹⁴C] Squalene was separated from unreacted substrate on thin layer chromatography plates and determined by liquid scintillation counting. Inhibition of squalene synthase was quantified by incubating rat liver homogenate with various concentrations of the test compound in the presence of [2-¹⁴C] farnesylpyrophosphate. The concentration of compound giving 50% inhibition of [¹⁴C] squalene production in a 30 minute assay was taken as the IC₅₀ value.

Structure (SMILES) | IC50 [nM]
C=C(CC[C@]12O[C@H](C(=O)O)[C@@](O)(C(=O)O)[C@](C(=O)O)(O1)[C@H](OC(=O)/C=C/[C@@H](C)C[C@@H](C)CC)[C@H]2O)[C@@H](OC(C)=O)[C@H](C)Cc1ccc(F)cc1 (relative stereo) [Example 1(a), [1S-[1α(4R*,5S*),3α,4β,5α,6α(2E,4R*,6R*),7β]] 1-[4-Acetoxy-6-(4-fluorophenyl)-5-methyl-3-methylenehexyll-4,6,7-trihydroxy-2,8-dioxabicyclo[3.2.1]octane-3,4,5-tricarboxylic acid, 6-(4,6-dimethyl-2-octenoate)] | < 100
C=C(CC[C@]12O[C@H](C(=O)O)[C@@](O)(C(=O)O)[C@](C(=O)O)(O1)[C@H](OC(=O)/C=C/[C@@H](C)C[C@@H](C)CC)[C@H]2O)[C@@H](OC(C)=O)[C@H](C)Cc1cccc(F)c1 (relative stereo) [Example 1(b), [1S-[1α(4R*,5S*),3α,4β,5α,6α(2E,4R*,6R*),7β]] 1-[4-Acetoxy-6-(3-fluorophenyl)-5-methyl-3-methylenehexyl]-4,6,7-trihydroxy-2,8-dioxabicyclo[3.2.1]octane-3,4,5-tricarboxylic acid, 6-(4,6-dimethyl-2-octenoate)] | < 100
C=C(CC[C@]12O[C@H](C(=O)O)[C@@](O)(C(=O)O)[C@](C(=O)O)(O1)[C@H](OC(=O)/C=C/[C@@H](C)C[C@@H](C)CC)[C@H]2O)[C@@H](OC(C)=O)[C@H](C)Cc1ccccc1F (relative stereo) [Example 1(c), [1S-[1α(4R*,5S*),3α,4β,5α,6α(2E,4R*,6R*),7β]] 1-[4-Acetoxy-6-(2-fluorophenyl)-5-methyl-3-methylenehexyl]-4,6,7-trihydroxy-2,8-dioxabicyclo[3.2.1]octane-3,4,5-tricarboxylic acid, 6-(4,6-dimethyl-2-octenoate)] | < 100

— patent EP0503520A1, “Cyclic ketal derivatives” (GLAXO GROUP LIMITED, priority 1991, dated 1992)
